Earlier results, collected in PMC7395068, “The evolution of strategies to minimise the risk of human drug-induced liver injury (DILI) in drug discovery and development” (Archives of Toxicology, 2020).
Where two headings read alike, the source gives them in different places.

Columns and labels:
[1] = ref Chen 2016; cited from earlier work
[2] = cited from earlier work
[3] = tested on: THLE-Null and THLE-3A4 cells; details: In vitro Assay; ref Gustafsson 2014; cited from earlier work
[4] = tested on: HepG2 cells, primary human hepatocytes; details: cited from earlier work
rBsep = details: cited from earlier work
human hepatocytes = details: In vitro Assay; ref Xu 2008; cited from earlier work
[5] = tested on: isolated mouse liver mitochondria; details: In vitro Assay; ref Porceddu 2012; cited from earlier work
[6] = tested on: primary human hepatocytes, NIH3T3 fibroblasts, BSEP, CYP3A4; details: In vitro Assay; ref Schadt 2015; cited from earlier work
HepG2 cells [7] = details: In vitro Assay; ref O'Brien 2006; cited from earlier work
HepG2 cells [8] = details: In vitro Assay; ref Persson 2013; cited from earlier work
PHH spheroids = details: In vitro Assay; ref Vorrink 2018; cited from earlier work
[9] = In vitro Assay, ref Garside 2014
[10] = In vitro Assay, ref Dawson 2012

## CNC(=O)Oc1ccc2c(c1)[C@]1(C)CCN(C)[C@@H]1N2C [physostigmine]
[1]
  DILI +VE (5-8), DILI -VE (-4): -VE
  DILI severity category: vNo-DILI-Concern
[2]; ref Dawson 2012
  In vivo DILI: -VE
[2]; ref Garside 2014
  In vivo DILI: -VE
[2]; ref Gustafsson 2014
  In vivo DILI: -VE
[2]; ref Vorrink 2018
  In vivo DILI: -VE
[3]
  THLE-Null: -VE
  THLE-Null/3A4: -VE
[4]; [9]
  Cluster 1-6 +VE Assay: -VE
rBsep; [10]
  Inhibition of rBsep cutoff<3: -VE
rBsep
  Inhibition of rBsep cutoff<1& cmax u>.2: -VE

## CC[C@H]1OC(=O)[C@H](C)[C@@H](O[C@H]2C[C@@](C)(OC)[C@@H](O)[C@H](C)O2)[C@H](C)[C@@H](O[C@@H]2O[C@H](C)C[C@H](N(C)C)[C@H]2O)[C@](C)(O)C[C@@H](C)CN(C)[C@H](C)[C@@H](O)[C@]1(C)O [azithromycin]
[1]
  DILI +VE (5-8), DILI -VE (-4): +VE
  DILI severity category: vLess-DILI-Concern
Human hepatocytes
  Structural based (HCI): -VE
[2]; […]
  In vivo DILI: +VE
[2]; ref Garside 2014
  In vivo DILI: +VE
[2]; ref Xu 2008
  In vivo DILI: -VE
[4]; [9]
  Cluster 1-6 +VE Assay: +VE

## Cc1nc(Nc2ncc(C(=O)Nc3c(C)cccc3Cl)s2)cc(N2CCN(CCO)CC2)n1 [dasatinib]
[1]
  DILI +VE (5-8), DILI -VE (-4): +VE
  DILI severity category: vLess-DILI-Concern
[2]; ref Garside 2014
  In vivo DILI: +VE
[2]; ref Porceddu 2012
  In vivo DILI: +VE
[4]; [9]
  Cluster 1-6 +VE Assay: +VE
[5]
  in vitro data EC2<=1x Cmax: -VE
  in vitro data EC20<=2uM: +VE

## CCCN(CCC)S(=O)(=O)c1ccc(C(=O)O)cc1 [probenecid]
[1]
  DILI +VE (5-8), DILI -VE (-4): -VE
  DILI severity category: Ambiguous DILI-concern
[6]
  Cellular toxicity (3T3 cells): -VE
  Combined Assay: -VE
  GSH adduct HML: -VE
  Hepatocyte cellular toxicity: -VE
  MitoTox 3T3: -VE
  TDI CYP3A4: -VE
  hBSEP inhibition: -VE
[2]; ref Dawson 2012
  In vivo DILI: +VE
[2]; ref Garside 2014
  In vivo DILI: +VE
[2]; ref Gustafsson 2014
  In vivo DILI: +VE
[2]; ref Schadt 2015
  In vivo DILI: -VE
[3]
  THLE-Null: -VE
  THLE-Null/3A4: -VE
[4]; [9]
  Cluster 1-6 +VE Assay: +VE
rBsep; [10]
  Inhibition of rBsep cutoff<1& cmax u>.2: -VE
  Inhibition of rBsep cutoff<3: -VE

## Cn1c(=O)c2c(ncn2C)n(C)c1=O [caffeine]
[4]
  Cluster 1-6 +VE Assay: -VE
[5]
  in vitro data EC2<=1x Cmax: +VE

## CC(=O)O[C@H]1C[C@@]2(C)[C@@H](C[C@@H](O)[C@H]3[C@@]4(C)CC[C@@H](O)[C@@H](C)[C@@H]4CC[C@@]32C)/C1=C(\CCC=C(C)C)C(=O)O [fusidic acid]
[3]
  THLE-Null: +VE
[4]; [9]
  Cluster 1-6 +VE Assay: -VE
rBsep; [10]
  Inhibition of rBsep cutoff<1& cmax u>.2: +VE
  Inhibition of rBsep cutoff<3: +VE

## CC(=O)Oc1ccc(C(c2ccc(OC(C)=O)cc2)c2ccccn2)cc1 [bisacodyl]
[1]
  DILI +VE (5-8), DILI -VE (-4): -VE
  DILI severity category: vNo-DILI-Concern
HepG2 cells [7]
  Structural based (HCI): +VE
HepG2 cells [8]
  Cluser analysis: -VE
  Structural based (HCI): -VE
[2]; ref Garside 2014
  In vivo DILI: -VE
[2]; ref O'Brien 2006
  In vivo DILI: -VE
[2]; ref Persson 2013
  In vivo DILI: -VE
[2]; ref Porceddu 2012
  In vivo DILI: -VE
[4]; [9]
  Cluster 1-6 +VE Assay: +VE
[5]
  in vitro data EC2<=1x Cmax: -VE
  in vitro data EC20<=2uM: +VE

## CCN(CC)CCNc1ccc(CO)c2sc3ccccc3c(=O)c12 [hycanthone]
Human hepatocytes
  Structural based (HCI): +VE
[2]; […]
  In vivo DILI: +VE
[2]; ref Garside 2014
  In vivo DILI: +VE
[2]; ref Xu 2008
  In vivo DILI: +VE
[4]; [9]
  Cluster 1-6 +VE Assay: +VE

## O=NN(CCCl)C(=O)NCCCl [carmustine]
[4]
  Cluster 1-6 +VE Assay: +VE
rBsep; [10]
  Inhibition of rBsep cutoff<3: -VE
rBsep
  Inhibition of rBsep cutoff<1& cmax u>.2: -VE

## CCCCNc1cc(C(=O)O)cc(S(N)(=O)=O)c1Oc1ccccc1 [bumetanide]
Human hepatocytes
  Structural based (HCI): +VE
PHH spheroids
  hLiMTs ATP <20 x Cmax: -VE
[4]; [9]
  Cluster 1-6 +VE Assay: -VE

## [N-]=[N+]=CC(=O)OC[C@H](N)C(=O)O [azaserine]
Human hepatocytes
  Structural based (HCI): -VE
[4]; [9]
  Cluster 1-6 +VE Assay: +VE

## O=C(O)[C@H]1/C(=C/CO)O[C@@H]2CC(=O)N21 [clavulanate]
[6]
  Cellular toxicity (3T3 cells): -VE
  Combined Assay: -VE
  GSH adduct HML: -VE
  Hepatocyte cellular toxicity: -VE
  MitoTox 3T3: -VE
  TDI CYP3A4: -VE
  hBSEP inhibition: -VE
[2]; […]
  In vivo DILI: -VE
[2]; ref Dawson 2012
  In vivo DILI: +VE
[2]; ref Garside 2014
  In vivo DILI: +VE
[2]; ref Gustafsson 2014
  In vivo DILI: +VE
[2]; ref Schadt 2015
  In vivo DILI: +VE
[3]
  THLE-Null: -VE
  THLE-Null/3A4: -VE
[4]; [9]
  Cluster 1-6 +VE Assay: -VE
rBsep; [10]
  Inhibition of rBsep cutoff<1& cmax u>.2: -VE
  Inhibition of rBsep cutoff<3: -VE
